Data reported in PubChem BioAssay AID504322 (Emory University Molecular Libraries Screening Center, 2011).
Calls of active or inactive are those of the source. No rule for the calls is given here.

The molecules below were run on CHOP reporter cell assay, percent of control (assay: CHOP reporter inhibitor potency, dose response, cell-based (AID 504322);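 also: CHO cells carrying a CHOP reporter stimulated with tunicamycin to induce ER stress; potency is for inhibition of the stress-induced reporter signal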).
For CNc1ccc2oc(C[C@H]3O[C@@]4(CC[C@H]3C)O[C@H]([C@H](C)C(=O)c3ccc[nH]3)[C@H](C)C[C@H]4C)nc2c1C(=O)O, the IC50 was less than 0.16 µM.
For COc1cc(OC)c(OC)cc1/C=N/Nc1ncnc2c1[nH]c1ccccc12, the IC50 was 9.19 µM (inactive).
Cc1cc(/C=N/n2cnnc2)c(C)n1-c1ccc(OCc2ccc(F)cc2)cc1 was tested, and the IC50 was 0.67 µM (inactive).
For CCCOC(=O)c1ccc(Oc2cn[nH]c2-c2ccc(OCC)cc2O)cc1, the IC50 was 9.56 µM (inactive).
With Cc1cc(/C=N/n2cnnc2)c(C)n1-c1ccc(OCc2ccccc2F)cc1 the IC50 was 4.88 µM.
For CCOC(=O)c1cnc(-n2nc(C)cc2C)nc1Nc1ccc(O)cc1, the IC50 was 1.51 µM.
For CC(C)c1ccc2c(c1)C1(NN=C(c3ccccc3)S1)C(=O)N2 (stereo not drawn), the IC50 was > 10 µM (inactive).
For Cc1ccc(N=C2SC(C(=O)Nc3ccc(OC(F)(F)F)cc3)C(N)=C2C(=O)Nc2c(C)cc(C)cc2C)cc1 (stereo not drawn), the IC50 was > 10 µM (inactive).
For O=[N+]([O-])c1ccc(S(=O)(=O)CC(CN2CCCCC2)N2CCCCC2)cc1 (stereo not drawn), the IC50 was 5.93 µM (inactive).
For O=[N+]([O-])c1ccc(NC(=S)NCCc2ccc(Cl)cc2)cc1, the IC50 was > 10 µM (inactive).
In the case of CC1=NN(c2nc(-c3ccc(C)cc3)cs2)C(=O)C1N=Nc1ccccc1O (stereo not drawn), the IC50 is reported as 6.66 µM (inactive).
With CCOc1cc(NC(=S)NCC(C)C)c(OCC)cc1NC(=O)c1cccs1 the IC50 was > 10 µM (inactive).
In the case of CC(=O)C1=C(c2ccc(Br)cc2)C(=O)c2ccccc2C1=O, the IC50 is reported as 5.57 µM (inactive).
In the case of CCOC(=O)COc1ccccc1/C=C\[N+](=O)[O-], the IC50 is reported as 9.51 µM (inactive).
O=C(Nc1ccc(C(F)(F)F)cc1)c1cc(-c2cccnc2)nc2ccc(Br)cc12 was tested, and the IC50 was 3.59 µM.
In the case of COc1cc(/C=C2\CC/C(=C\c3cc(OC)c(O)c(OC)c3)C2=O)cc(OC)c1O, the IC50 is reported as 1.84 µM (inactive).
Molecule Cc1ccc(-c2nc(C(Cl)Cl)c3ccccc3n2)cc1 has an IC50 of 2.08 µM.
With COc1ccc2nc(Nc3nc(CSc4nc5ccccc5[nH]4)cc(=O)[nH]3)nc(C)c2c1 the IC50 was 2.33 µM (inactive).
In the case of CCCCCCn1c(CN2CCCC(C)C2)nc2c1c(=O)n(C)c(=O)n2C (stereo not drawn), the IC50 is reported as > 10 µM (inactive).
O=S(=O)(Nc1cc(Sc2cccc3cccnc23)c(O)c2ccccc12)c1ccc(F)cc1 showed an IC50 of 2.72 µM.
O=C(CSC1c2ccccc2-c2ccccc21)N/N=C/c1ccccc1O was tested, and the IC50 was > 10 µM (inactive).
For CN(C)c1ccc(/C=C/c2ccc3c4ccccc4ccc3[n+]2-c2ccccc2)cc1, the IC50 was 1.14 µM (inactive).
C=C(C)COc1ccc(-c2n[nH]c(C)c2Oc2ccccc2OC)c(O)c1 was tested, and the IC50 was 8.82 µM (inactive).
For O=S(=O)(Nc1ccccc1)c1ccc(Oc2ncc(C(F)(F)F)cc2Cl)cc1, the IC50 was > 10 µM (inactive).
CC1=C(C)/C(=N\OS(=O)(=O)c2ccccc2)C=CC1=O was tested, and the IC50 was 2.13 µM.
C[C@H](NC(=O)c1nc[nH]c1C(=O)N[C@@H](Cc1ccccc1)C(=O)OC(C)(C)C)C(=O)OC(C)(C)C was tested, and the IC50 was 5.25 µM (inactive).
CC(C)Cc1ccc(C(C)C(=O)Nc2nccs2)cc1 (stereo not drawn) was tested, and the IC50 was > 10 µM (inactive).
O=c1[nH]c(NNC(=S)NC2CCCCC2)nc2c1C1(CCCC1)Cc1ccccc1-2 was tested, and the IC50 was 4.1 µM (inactive).
With Cn1c(=O)c(C(=O)Nc2ncccc2O)c(O)c2ccccc21 the IC50 was 9.46 µM (inactive).
In the case of Cc1cc(C(=O)CCl)c(C)n1-c1cccc(S(=O)(=O)N2CCOCC2)c1, the IC50 is reported as > 10 µM (inactive).
In the case of CCCOc1ccc(N2C(=O)CC(SC(=NCC)Nc3cccc(F)c3)C2=O)cc1 (stereo not drawn), the IC50 is reported as 8.9 µM (inactive).
COc1ccc(CCNC(=O)c2nnn(-c3ccc4c(c3)OCCO4)c2N)cc1OC was tested, and the IC50 was 0.69 µM.
O=c1cc(-c2c(F)c(F)c(F)c(F)c2F)oc2c(F)c(F)c(F)c(F)c12 showed an IC50 of 3.98 µM.
In the case of OC1(c2cccc(C(F)(F)F)c2)CCN(c2ncnc3c2[nH]c2ccc(F)cc23)CC1, the IC50 is reported as 4.54 µM (inactive).
FC(F)(F)c1cccc(NC(=S)Nc2ccc(Cl)cc2Cl)c1 was tested, and the IC50 was 6.1 µM (inactive).
With COC(=O)C(Nc1ccccc1Cl)(c1cc(C)c(O)c(C)c1)C(F)(F)F (stereo not drawn) the IC50 was 9.66 µM (inactive).
For CCOc1ccc(/C=N/NC(=O)c2cc(-c3ccco3)nc3ccccc23)cc1, the IC50 was 5.15 µM (inactive).
For Cc1ccccc1OCc1n(CC(=O)OC2CC(C)CCC2C(C)C)c2ccccc2[n+]1C (stereo not drawn), the IC50 was > 10 µM (inactive).
With C#CC(=O)N(c1cc(OC)ccc1OC)C(C(=O)NC1CCCC1)c1cccs1 (stereo not drawn) the IC50 was > 10 µM (inactive).
In the case of COc1cc2c(cc1OC)C(c1ccccc1)N(C(=O)CCl)CC2 (stereo not drawn), the IC50 is reported as 9.53 µM (inactive).
With Cc1ccc(-n2c(Cl)c(Cl)nc(Cl)c2=O)cc1 the IC50 was 1.04 µM.
In the case of O=C(Nc1ccc(Oc2c(F)c(F)c(F)c(F)c2F)cc1)OC1CCN2Cc3ccccc3N=C12 (stereo not drawn), the IC50 is reported as 8.37 µM (inactive).
In the case of COc1ccc(CCN2C(=O)c3[nH]nc(-c4ccccc4O)c3C2c2cccc(Cl)c2)cc1 (stereo not drawn), the IC50 is reported as > 10 µM (inactive).
In the case of C=C1C(=O)O[C@@H]2C[C@@H](C)[C@@H]3C4OC4C(=O)[C@@]3(C)[C@@H](O)[C@H]12 (stereo partly drawn), the IC50 is reported as 9.5 µM (inactive).
CC(C)(C)c1ccc(O)c(N=Cc2cc(Br)ccc2O)c1 was tested, and the IC50 was 9.15 µM (inactive).
For CC(C)(C)c1nnc(N/N=C/c2cc(Br)ccc2O)n(N)c1=O, the IC50 was 5.11 µM (inactive).
With O=C1NCN(c2ccccc2)C12CCN(CCCC(c1ccc(F)cc1)c1ccc(F)cc1)CC2 the IC50 was 7.76 µM (inactive).
For CCOc1cc(/C=N\NC(=O)Cc2ccccc2)ccc1OCC(=O)Nc1ccc(C)c(C)c1, the IC50 was 6.38 µM (inactive).
CCOC(=O)N1CCC(n2c(=S)[nH]c3cc(OCC)c(OCC)cc3c2=O)CC1 was tested, and the IC50 was 4.35 µM (inactive).
For Nc1nc(-c2ccccc2)c(N=Nc2ccccc2Cl)s1, the IC50 was 8.65 µM (inactive).
Molecule C=C(C=O)CC1CC(O)[C@]2(C)OC3CC4OC5C[C@]6(C)O[C@]7(C)CCC8OC9C[C@]%10(C)OC%11C(C)=CC(=O)OC%11CC%10OC9C[C@@H](C)C8OC7CC6O[C@]5(C)CC5OC5C4OC3CC2O1 (stereo partly drawn) has an IC50 of 0.82 µM.
For Cc1cccc(OCc2n(CC(=O)OC3CC(C)CCC3C(C)C)c3ccccc3[n+]2C)c1 (stereo not drawn), the IC50 was > 10 µM (inactive).
With C=C(C)COc1ccc(-c2[nH]ncc2Oc2ccccc2OCC)c(O)c1 the IC50 was 1.94 µM.
With COc1ccc(CC(=O)Nc2cccc(-c3nnc(-c4cccc(C)c4)o3)c2)cc1OC the IC50 was 5.17 µM (inactive).
CN1C2CCC1/C(=C/c1ccccn1)C(=O)/C2=C\c1ccccn1 gave an IC50 of 2.04 µM.
For Cc1cc(C)cc(NC(=O)/C(C#N)=C/c2cn(CC(=O)NCc3ccco3)c3ccccc23)c1, the IC50 was 1.17 µM.
For CCOc1cc(/C=N/NC(=O)COc2cccc(C)c2)ccc1OC(=O)c1cccs1, the IC50 was > 10 µM (inactive).
For CC(C)(C)c1ccc(C(=O)NC(=S)NNC(=O)c2cccs2)cc1, the IC50 was 6.3 µM (inactive).
With CCOc1cc(/C=N/NC(=O)Cc2ccc(C(F)(F)F)cc2[N+](=O)[O-])c(Br)cc1OC the IC50 was 4.6 µM.
Cn1c(=O)[nH]c(=O)c2c1nc([N+](=O)[O-])n2Cc1ccccc1 was tested, and the IC50 was 4.64 µM.
With CCCOc1ccc(Cc2c(Cl)nc(SC)nc2NC)cc1 the IC50 was 8.18 µM (inactive).
For C/C(=N\NC(=O)COc1ccc(C(C)(C)C)cc1)c1ccc(N2CCOCC2)cc1, the IC50 was 9.41 µM (inactive).
Cc1cc(Cl)n2c(nc3cc(F)c(F)cc32)c1C#N was tested, and the IC50 was > 10 µM (inactive).
For Cc1cc(Nc2cccc([N+](=O)[O-])c2)n2c(nc3ccccc32)c1C#N, the IC50 was 4.08 µM (inactive).
In the case of CC(C)Cn1c(N)c(C(=O)COC(=O)C2CCCCC2)c(=O)n(C)c1=O, the IC50 is reported as > 10 µM (inactive).
With CCn1c(=O)c(C(=O)Nc2nc3ccccc3[nH]2)c(O)c2ccccc21 the IC50 was 5.84 µM (inactive).
For O=C1CC(c2ccccc2Cl)CC(O)=C1C=Nc1ccccc1 (stereo not drawn), the IC50 was 6.54 µM (inactive).
With Cc1ccn2cc(-c3cc4ccccc4oc3=O)nc2c1 the IC50 was 9.15 µM (inactive).
With O=C(c1ccc(COc2ccc(Cl)cc2)o1)N1N=C(C(F)F)CC1(O)C(F)F (stereo not drawn) the IC50 was 9.64 µM (inactive).
In the case of CCCC(=O)OCCNc1cc(Sc2nc3ccccc3[nH]2)c2nonc2c1[N+](=O)[O-], the IC50 is reported as 5.35 µM (inactive).
With COC(=O)c1ccc2c(c1)C(C)(C)C(/C=C/c1ccccc1O)=[N+]2C the IC50 was > 10 µM (inactive).
For Cc1cccc(N=Nc2c(N)n[nH]c2-c2ccc(Cl)cc2)c1, the IC50 was 9.41 µM (inactive).
For CCc1c(C)sc(NC(=O)CSc2nc3c(c(C(F)(F)F)n2)CCc2ccccc2-3)c1C#N, the IC50 was 9.75 µM (inactive).
In the case of CCCCCCCC(=O)N/N=C/c1ccc(Br)cc1, the IC50 is reported as 3.51 µM.
Molecule O=C(NNc1ccccc1Br)C(O)(c1cccc(C(F)(F)F)c1)c1cccc(C(F)(F)F)c1 has an IC50 of 2.14 µM.
In the case of Oc1ccc(Br)cc1-c1nc2cnccn2c1NC1CCCCC1, the IC50 is reported as > 10 µM (inactive).
O=C1c2ccc3c4c(ccc(c24)C(=O)N1c1cccc(O)c1)C(=O)N(c1cccc(O)c1)C3=O was tested, and the IC50 was 9.81 µM (inactive).
With CNC(=O)NC(=O)C(C)OC(=O)c1oc2ccccc2c1CSc1ccc(Cl)cc1 (stereo not drawn) the IC50 was > 10 µM (inactive).
With Cc1cc(/C=N/n2cnnc2)c(C)n1-c1ccc(OCc2ccc(Cl)cc2)cc1 the IC50 was 0.38 µM.
For Cc1ccc(S(=O)(=O)Nc2ccc(NC(=O)Nc3cccc(C(F)(F)F)c3)cc2)cc1, the IC50 was 9.48 µM (inactive).
For CCN(CCO)c1ncnc2c1sc1nc(C(C)C)c3c(c12)CC(C)(C)OC3, the IC50 was 9.63 µM (inactive).
In the case of Cc1ccc(N2C(=O)NC(=O)/C(=C\C=C\c3ccco3)C2=O)cc1, the IC50 is reported as 9.55 µM (inactive).
For Cc1ccc(S(=O)(=O)CC#CCOC(=O)c2ccc([N+](=O)[O-])cc2)cc1, the IC50 was > 10 µM (inactive).
O=C(OCC(F)(F)F)c1cccc(COc2ccc3ccccc3c2)c1 showed an IC50 of 1.26 µM.
Nc1c(C(=O)Nc2ccccc2F)sc2nc(-c3cccnc3)ccc12 was tested, and the IC50 was > 10 µM (inactive).
With CN(C(=O)CCl)C1CCCc2ccccc21 (stereo not drawn) the IC50 was > 10 µM (inactive).
With CCOC(=O)c1cc(-c2cccs2)nc2c1c(C)nn2-c1ccccn1 the IC50 was 9.14 µM (inactive).
With COC(=O)c1sc(-c2ccc(C(C)(C)C)cc2)cc1NC(=O)c1ccccc1C(=O)O the IC50 was 8.29 µM (inactive).
CC(C)(C)C(=O)NC(NC(=S)Nc1sc2c(c1C#N)CCCC2)C(Cl)(Cl)Cl (stereo not drawn) was tested, and the IC50 was > 10 µM (inactive).
For Cc1cc(Cl)ccc1OCc1n[nH]c(=S)n1C1CCCCC1, the IC50 was > 10 µM (inactive).
C=CCc1cccc(/C=N/NC(=O)CCCNc2ccc(C)cc2)c1O was tested, and the IC50 was 9.23 µM (inactive).
With CCC(NC(=O)Nc1nnc(C(F)(F)F)s1)(C(F)(F)F)C(F)(F)F the IC50 was 2.56 µM (inactive).
In the case of COc1ccc(-c2cnc(OC(C)(C)C)nc2OC(C)(C)C)cc1OC, the IC50 is reported as 4.6 µM (inactive).
